Data as given in patent publication US11578009B2, “Urea-based blend composition and method for the manufacture thereof” (YARA INTERNATIONAL ASA, priority 2018, dated 2023).

How the values were obtained:
[1] = nBTPT stability on YaraVera Amidas (UAS) during storage, HPLC analysis of nBTPT content; assay type: physicochemical; settings: for Stabilizing effect on nBTPT on UAS: Experiment 4, MgSO4/MgO combinations, FIG. 4
Description: For lab scale experiments, 1.2 kg of solid fertilizer material was added to a lab scale drum. […] A residence time of 10 minutes was applied and the rotating speed of the drum was consequently the same in each experiment. […] Before use, the moisture-repellent coating was preheated to 80° C. Larger scale experiments with amounts up to 40 kg of fertilizer material were performed in a concrete mixer. The samples were stored under several conditions, dependent on the type of samples: • Bagged at room temperature (18-25° C.) • Bagged at 40° C. • Open to air at room temperature (18-25° C.) 3.

pH of MgSO4 grades = assay type: physicochemical; settings: MgSO4 grade

Row | Structure (SMILES) | Stabilizing effect on nBTPT on UAS ([1]; 462 ppm nBTPT) | pH (pH of MgSO4 grades) | also measured
1 | O=S(=O)([O-])[O-].[Na+].[Na+] [Na2SO4, reference compound] | – | – | Stability of nBTPT on YaraVera Amidas product ([1]; Experiment 3, open plastic containers at room temperature for 21 days, 462 ppm nBTPT, FIG. 3): negative effect
2 | [O]=[Mg] [MgO, magnesium oxide, reference compound] | more effective than CaO | – | –
3 | O=S(=O)([O-])[O-].[Mg+2] [MgSO4 99.5%] | – | 8.5 | –
4 | O=S(=O)([O-])[O-].[Mg+2] [MgSO4 99.999%] | – | 6.1 | –
5 | O=S(=O)([O-])[O-].[Mg+2] [MgSO4, magnesium sulphate] | little effect | – | Stabilizing effect on nBTPT in the presence of UAS ([1]; Experiment 2, open to air at room temperature 40 days (FIG. 2A) and in bags at 40° C. 8 days (FIG. 2B), 462 ppm nBTPT): comparable with the effect of the prior art compound (CaO); Stabilizing effect at more than 1 weight % of magnesium sulphate ([1]; more than 1 weight % in the composition): did not produce a proportionally better stabilizing effect
